{"source": "patent US20210024499A1", "about": "“OXIDIZED BIS(3-INDOLYL)METHANES AND USES THEREOF” (Sanford Burnam Prebys Medical Discovery Institute, priority 2018, published 2021)", "key": {"PyMT mammary tumor": {"system": "PyMT mammary tumor", "assay": "MMTV-PyMT mice breast cancer model", "assay_type": "in vivo", "conditions": "for growth of PyMT mammary tumor: 18 days", "procedure": "Female MMTV-PyMT mice of 12 weeks old were randomly divided into two groups (n=7 each), treated with a daily oral dose of test compound for 18 days. Standard histopathological analysis of tumor tissue was performed (see Example A-19). Test compounds were dissolved in DMSO and diluted with normal saline containing 5.0% (V/V) Tween-80 to a final concentration 0.5 mg/ml. Normal saline with DMSO and 5.0% Tween-80 was employed as the vehicle control.\n4 μm thick sections were deparaffinized and rehydrated using xylene and a graded series of ethanol (100, 95, 85, 75, 50%), followed by washing in PBS. Antigen retrieval was performed in 10 mM sodium citrate buffer (pH 6.0), which was microwaved at 100° C. for 20 minutes. After rinsed twice in PBS, sections were blocked at room temperature for 1 hour by using 10% normal goat serum, followed by incubation with anti-ki-67, anti-cleaved-caspase-3, overnight (at least 17 hours) at 4° C. Colors were developed with a DAB horseradish peroxidase color development kit."}, "MEFs": {"system": "MEFs", "assay": "DAPI staining for apoptosis, MEFs", "assay_type": "cell-based, mouse", "conditions": "0.5 μM", "source_text": "(§1) The apoptotic effect of Compound 1 was also examined in mouse embryonic fibroblast (MEF) and MEF lacking Bcl-2 (Bcl-2^−/−MEF). […] Apoptotic cells were counted in 200 cells."}, "Nur77-LBD": {"biological_target": "T1, Nur77-LBD (Homo sapiens, UniProt P22736)", "T1 construct": "Protein spectra of purified Nur77-LBD at temperature 50° C. and above changed substantially; His (N); made in house", "T1 sequence (P22736 360-595 limits assumed)": "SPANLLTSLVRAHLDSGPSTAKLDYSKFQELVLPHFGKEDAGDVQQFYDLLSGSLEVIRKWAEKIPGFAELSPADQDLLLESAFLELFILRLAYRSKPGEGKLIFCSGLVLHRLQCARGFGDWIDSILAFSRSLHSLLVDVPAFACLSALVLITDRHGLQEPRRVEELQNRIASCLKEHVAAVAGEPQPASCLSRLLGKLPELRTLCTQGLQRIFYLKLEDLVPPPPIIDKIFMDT", "assay": "Surface plasmon resonance (SPR) binding to Nur77-LBD", "conditions": "Nur77-LBD protein, 25° C.", "procedure": "The binding kinetics between Nur77-LBD and test compounds was analyzed at 25° C. on a BlAcore T200 machine with CMS chips (GE Healthcare). PBSP was used for all measurements. For SPR measurements, Nur77-LBD proteins were purified. A blank channel was used as negative control. About 10,000 response units of Nur77-LBD were immobilized on the chips. When the data collection was finished in each cycle, the sensor surface was regenerated with Glycine-HCl 2.5. A serial of concentrations ranging from 0.15 to 5.0 μM were designed for the experiment. Sensograms were fit globally with BIAcore T200 analysis using 1:1 Langumuir binding mode."}, "Bcl-2−/−MEF cells [1]": {"system": "Bcl-2−/−MEF cells", "assay": "DAPI staining for apoptosis, Bcl-2-/- MEFs", "assay_type": "cell-based, mouse", "conditions": "0.5 μM", "source_text": "as §1"}, "HCT116 cancer cells": {"system": "HCT116 cancer cells", "assay": "Apoptosis assay, Annexin V-FITC/propidium iodide flow cytometry", "assay_type": "cell-based", "conditions": "Homo sapiens, HCT-116, 6 hours, Annexin V-FITC/PI flow cytometry (Table 4)", "procedure": "HCT116 cancer cells plated at a density of 1×10^6 per well on six-well plates were treated with different concentration of test compounds for 6 hours, and then the suspension and the adherent cells were collected, stained with Annexin V-FITC for 15 minutes and with propodium iodide for 5 minutes, and analyzed immediately by cytoFLEX Flow Cytometry System (Beckman-Coulter, Miami, Fla., USA) using FITC and PC5.5 (Table 4)."}, "HeLa cells": {"system": "HeLa cells", "assay": "DAPI staining for apoptosis, HeLa", "assay_type": "cell-based", "procedure": "In HeLa cells, about 60% apoptotic cells were detected when cells were treated with Compound 1 compared to less than 5% when cells were not treated with Compound 1. Apoptotic cells were counted in 200 cells.\nWe next examined whether Nur77 mitochondrial targeting induced by the combination of Compound 1/B12030 was apoptotic. HeLa cells were treated with either Compound 1 or BI2030 alone or in combination and apoptosis was examined by DAPI staining. About 7.2% or 9.1% of cells were apoptotic when treated with 0.5 μM Compound 1 or 1 μM BI2030, respectively, for 2 hours. […] Apoptotic cells were counted in 200 cells."}, "[2]": {"system": "non-transfected HEK293T cells", "assay": "Apoptosis in non-transfected HEK293T cells (confocal microscopy)", "assay_type": "cell-based", "source_text": "The ligand-binding domain (LBD) of Nur77, Nur77-LBD, was transfected into HEK293T cells. Transfection of Nur77-LBD enhanced the apoptotic effect of Compound 1, with 36% of the transfected HEK293T cells undergoing apoptosis, while 4.5% of the non-transfected cells were apoptotic, as measured by confocal microscopy."}, "Nur77": {"system": "Nur77", "assay": "Cellular fractionation and immunostaining: mitochondrial targeting of Nur77", "assay_type": "cell-based", "procedure": "For cellular fractionation, cells were lysed in cold buffer A (10 mM HEPES-KOH (pH 7.9), 1.5 mM MgCl2, 10 mM KCl, 0.5 mM dithiothreitol) with a cocktail of proteinase inhibitors on ice for 10 min as described. Cytoplasmic fraction was collected by centrifuging at 6000 rpm for 30 seconds. Pellets containing nuclei were resuspended in cold high-salt buffer C (20 mM HEPES-KOH (pH 7.9), 25% glycerol, 420 mM NaCl, 1.5 mM MgCl2, 0.2 mM EDTA, 0.5 mM dithiothreitol) with a cocktail of proteinase inhibitors on ice for 30 minutes."}, "Bcl-2−/−MEF cells [3]": {"system": "Bcl-2−/−MEF cells", "assay": "Mitochondrial ROS, Bcl-2-/- MEF", "assay_type": "cell-based, mouse", "procedure": "Loss of mitochondrial membrane potential (Avm) represents one of the hallmarks of apoptosis. A JC-1 probe was employed to measure mitochondrial depolarization in cancer cells. MDA-MB-231 breast cancer cells were treated with different concentration of test compounds for 6 hours. JC-1 staining solution (5 μg/ml) was added at 37° C. for 20 min. After washing with PBS twice, mitochondrial membrane potentials were monitored by determining the relative amounts of dual emission from a multiple fluorescence reader. The fluorescence in cells was quantitatively analyzed by flow cytometry. Mitochondrial depolarization is depicted by an increase in the green/red fluorescence intensity ratio. ROS were monitored with the oxiadtion-senstive fluorescent probe 2′7′-dichlorodihydroflurescenin diacetate (DCF-DA).\nIn addition, Bcl-2^−/−MEF cells were more resistant than the parental MEF cells to Compound 1 in its induction of the mitochondrial membrane potential loss measured by JC1 staining and in the release of mitochondrial ROS (as performed in Example A-12)."}, "HCT116 cells": {"system": "HCT116 cells", "assay": "DAPI staining for apoptosis, HCT116", "assay_type": "cell-based", "conditions": "0.5 μM, 6 hours, counted in 200 cells", "procedure": "In HCT116 cells, about 80% apoptotic cells were detected when cells were treated with Compound 1 compared to less than 5% when cells were not treated with Compound 1. Apoptotic cells were counted in 200 cells."}}}
{"smiles": "FC(F)(F)c1ccc([C+](c2c[nH]c3ccccc23)c2c[nH]c3ccccc23)cc1", "note": "[Compound 1, Bis(1H-indol-3-yl)(4-(trifluoromethyl)phenyl)methylium methanesulfonate]", "values": [{"measurement": "expression levels of mTOR markers p-S6 and p-mTOR in tumor", "setting": "PyMT mammary tumor; 3 mg/kg", "value": "markedly reduced"}, {"measurement": "growth of PyMT mammary tumor", "setting": "PyMT mammary tumor; 3 mg/kg daily oral", "value": "inhibited the growth of PyMT mammary tumor"}, {"measurement": "growth of PyMT mammary tumor", "setting": "PyMT mammary tumor; 5 mg/kg daily oral", "value": "inhibited the growth of PyMT mammary tumor"}, {"measurement": "expression levels of proliferation markers PCNA and Ki67 in tumor tissues", "setting": "PyMT mammary tumor; 5 mg/kg, Western blotting", "value": "markedly reduced"}, {"measurement": "cleaved caspase 3 in tumor tissue specimens", "setting": "PyMT mammary tumor; 5 mg/kg, immunostaining", "value": "enhanced expression of cleaved caspase 3"}, {"measurement": "cells with chromatin condensation and nuclear fragmentation (DAPI)", "setting": "MEFs", "value": 40, "unit": "%"}, {"measurement": "Kd", "setting": "Nur77-LBD", "value": 100, "unit": "nM"}, {"measurement": "cells with chromatin condensation and nuclear fragmentation (DAPI)", "setting": "Bcl-2−/−MEF cells [1]", "value": 14, "unit": "%"}, {"measurement": "IC50", "setting": "HCT116 cancer cells", "value": "< 500", "unit": "nM"}, {"measurement": "apoptotic cells (DAPI staining), single agent", "setting": "HeLa cells; 0.5 μM Compound 1 or 1 μM BI2030, 2 hours", "value": "About 7.2%"}, {"measurement": "apoptotic cells (DAPI staining)", "setting": "HeLa cells; 0.5 μM, 6 hours, counted in 200 cells", "value": "about 60%"}, {"measurement": "apoptotic cells (DAPI staining), co-treated with Compound 1 and BI2030", "setting": "HeLa cells; co-treatment with BI2030, 2 hours", "value": "about 35.5%"}, {"measurement": "apoptotic cells", "setting": "[2]", "value": 4.5, "unit": "%"}, {"measurement": "transfected GFP-Nur77-LBD colocalization with Hsp60", "setting": "Nur77; confocal microscopy and cellular fractionation", "value": "colocalized extensively with the mitochondria-specific Hsp60 protein"}, {"measurement": "Myc-Nur77-LBD colocalization with mitochondria", "setting": "Nur77; immunostaining", "value": "colocalized extensively with the mitochondria"}, {"measurement": "increase in mito-ROS relative to regular MEF cells", "setting": "Bcl-2−/−MEF cells [3]", "value": "smaller increase"}, {"measurement": "apoptotic cells (DAPI staining)", "setting": "HCT116 cells", "value": "about 80%"}]}
